Measurements taken from paper PMC7272617 (Scientific Reports, 2020).
Converted amounts (≈) assume the structure as drawn. “And” between values parts separate entries of the source, which are not always exact repeats. Identical values can stand only once. Where a SMILES comes first, the peptide text is derived from it.

Columns and labels:
[1] = system: MDR P. aeruginosa isolates; test: MIC against all tested MDR P. aeruginosa isolates; type: cell-based, Pseudomonas aeruginosa; settings: times higher than ciprofloxacin
[2] = system: P. aeruginosa ATCC 27853; test: Membrane permeability (PI) and depolarization (BOX), flow cytometry; type: cell-based, Pseudomonas aeruginosa; settings: for permeabilized and depolarized cells: 0.5 × MIC; for cell population BOX+PI- / cell population BOX-PI+ / cell population BOX-PI- / permeabilized and depolarized cells (BOX+PI+): 1 × MIC; for permeabilized and depolarized cells (BOX+PI+): 37 °C, triplicate
Procedure: Their outer and inner membranes provide important protection for Gram-negative bacteria. To assess membrane permeability and depolarization induced by PA-13, the DNA intercalating dyes propidium iodide (PI) and bis-(1,3-dibutylbarbituric acid) trimethine oxonol (BOX) were used as previously described. The fluorescence conferred by these dyes is generally associated with the loss of membrane integrity and potential, respectively.
Briefly, P. aeruginosa ATCC 27853 was cultured to mid-logarithmic phase and harvested by centrifugation at 2,000 × g for 5 min. The bacterial cells were washed thrice with PBS and diluted to 10^7 CFU/ml in 50 ml of PBS. […] Bacterial pellets were harvested and washed with PBS by centrifugation at 10,000 × g for 10 min. […] Untreated bacterial cells (no peptide) served as a negative control, whereas bacterial cells treated with melittin served as a positive control. Data was recorded using a flow cytometer (CytoFlex, Beckman Coulter) at a laser excitation wavelength of 488 nm. Forward scatter (FS), side scatter (SS), green fluorescence (530/30 nm) from BOX and red fluorescence (585/42 nm) emitted by PI were collected using logarithmic scales. 25,000 cells, defined according to their scatter parameters, were counted in each sample. The experiments were performed in triplicate and the data was analyzed using Kaluza software.

[3] = system: P. aeruginosa ATCC 27853; test: Transmission electron microscopy (TEM); type: cell-based, Pseudomonas aeruginosa; settings: 0.5 × MIC, 2 h; result in words
Procedure: The bacterial cells were treated and prepared with the same conditions as previously described in SEM[8]. The bacterial pellets were washed twice with PBS and post-fixed with 1% osmium tetroxide in PBS for 2 h, after overnight fixing with 2.5% glutaraldehyde. The fixed bacterial cells were washed twice with PBS, followed by dehydration for 15 min in a graded ethanol series (50%, 70%, 90%, and 100%). After placing in absolute acetone for 20 min, these samples were transferred to a mixture of absolute acetone and epoxy resin (1:1 and 1:3) for 1 h each, followed by transfer to pure epoxy resin and held overnight. Ultrathin sections were cut with a glass knife on an ultramicrotome, and post-stained with uranyl acetate and lead citrate. Specimens were observed using a transmission electron microscope (Hitachi HT7700, Japan).

[4] = system: human TLR4 (hTLR4); test: LPS-mediated TLR4 activation, HEK-Blue hTLR4 SEAP reporter; type: cell-based; settings: 250 ng/ml LPS of P. aeruginosa serotype 10, 0.98-250 µg/ml peptide, 16 h; result in words
Procedure: Stimulation with LPS activates NF-kB and AP-1, inducing the production of SEAP. Opposing this, the peptide can interact with LPS and inhibit TLR4 signal transduction, and so decrease production of SEAP. The hydrolysis of substrate by SEAP produces a purple/blue color.
Briefly, HEK-Blue hTLR4 cells (3 × 10^4 cells/well) were seeded in 96-well plates and incubated at 37 °C in an air atmosphere containing 5% CO2 for 24 h. These cells were further incubated with 250 ng/ml LPS of P. aeruginosa serotype 10 (Sigma) and different concentrations of PA-13 (0.98-250 µg/ml) for 16 h. After incubation, supernatants were collected and incubated with QUANTI-Blue™ (InvivoGen). The absorbance of SEAP was monitored at 620 nm. The results were calculated from at least three independent experiments.

[5] = system: Escherichia coli O157:H7 MT strain; settings: E. coli O157:H7 MT strain; MHB, 37 °C, 24 h
[6] = system: Salmonella Typhimurium ATCC 13311; settings: ATCC 13311, 24 h
[7] = system: Vibrio cholera O1 Inaba DMST 16261; settings: MHB, 37 °C, 24 h
[8] = system: Staphylococcus aureus ATCC 25923; settings: ATCC 25923, 24 h
[9] = system: Listeria monocytogenes 10403 s; settings: 10403 s, 24 h
[10] = system: MDR P. aeruginosa clinical isolate No.1
[11] = system: MDR P. aeruginosa clinical isolate No.6; settings: MDR clinical isolate No.6, 24 h
[12] = system: MDR P. aeruginosa clinical isolate No.7; settings: MDR clinical isolate No.7, 24 h
[13] = system: MDR P. aeruginosa clinical isolate No.8; settings: MDR clinical isolate No.8, 24 h
[14] = system: MDR P. aeruginosa clinical isolate No.9; settings: MDR clinical isolate No.9, 24 h
[15] = system: MDR P. aeruginosa clinical isolate No.12
[16] = system: L929 mouse fibroblast cells; test: Cytotoxicity, MTT viability assay; settings: 3.91 µg/ml, 24 h

With CC[C@H](C)[C@H](NC(=O)[C@H](CCCNC(=N)N)NC(=O)[C@H](CCCCN)NC(=O)[C@H](C)NC(=O)[C@@H](NC(=O)[C@@H](N)CCCCN)[C@@H](C)CC)C(=O)N[C@@H](Cc1c[nH]c2ccccc12)C(=O)N[C@@H](CCCCN)C(=O)N[C@H](C(=O)N[C@@H](CC(C)C)C(=O)N[C@@H](CCCNC(=N)N)C(=O)N[C@@H](CCCNC(=N)N)C(=O)N[C@@H](CCCNC(=N)N)C(N)=O)[C@@H](C)CC [PA-13] (H-KIAKRIWKILRRR-NH2; N-terminus assumed) the “antimicrobial activity relative to ciprofloxacin” value [1] was 8-64 times, the “permeabilized and depolarized cells” value ([2]; 15 min) was 72.75 ± 1.08% and the “permeabilized and depolarized cells” value ([2]; 30 min) was 75.30 ± 2.68%. The “permeabilized and depolarized cells” value ([2]; 60 min) was 81.66 ± 3.35%, the “cell population BOX+PI-” value ([2]; 15 min) was 3.55% and the “cell population BOX-PI+” value ([2]; 15 min) was 7.74%. For the same compound, the “cell population BOX-PI-” value ([2]; 15 min) was 0.68%, the “permeabilized and depolarized cells (BOX+PI+)” value ([2]; 15 min) was 88.03 ± 3.02% and 88.03% and the “cell population BOX+PI-” value ([2]; 30 min) was 5.74%. For the same compound, the “cell population BOX-PI+” value ([2]; 30 min) was 3.61%, the “cell population BOX-PI-” value ([2]; 30 min) was 0.96% and the “permeabilized and depolarized cells (BOX+PI+)” value ([2]; 30 min) was 89.69 ± 5.25% and 89.69%. The “cell population BOX+PI-” value ([2]; 60 min) was 6.25%, the “cell population BOX-PI+” value ([2]; 60 min) was 1.05% and the “cell population BOX-PI-” value ([2]; 60 min) was 0.62%. For the same compound, the “permeabilized and depolarized cells (BOX+PI+)” value ([2]; 60 min) was 92.07 ± 5.15% and 92.07%, the “membrane integrity and intracellular alterations (TEM)” value [3] was “disrupted cell membrane with visible pores and leakage of cellular contents” and the “inhibition of LPS-mediated TLR4 activation” value [4] was “dose-dependent inhibition”. It also gave an MIC [5] of 31.25 µg/mL (≈ 18 µM), an MIC [6] of 1.95 µg/mL (≈ 1.12 µM) and an MIC [7] of 31.25 µg/mL (≈ 18 µM). It also gave an MIC [8] of 62.5 µg/mL (≈ 36 µM), an MIC [9] of 3.91 µg/mL (≈ 2.25 µM) and an MIC [10] of 3.91 µg/mL (≈ 2.25 µM). For the same compound, the MIC [11] was 7.81 µg/mL (≈ 4.5 µM), the MIC [12] was 7.81 µg/mL (≈ 4.5 µM) and the MIC [13] was 7.81 µg/mL (≈ 4.5 µM). For the same compound, the MIC [14] was 7.81 µg/mL (≈ 4.5 µM), the MIC [15] was 3.91 µg/mL (≈ 2.25 µM) and the “L929 cell survival at the MIC” value [16] was “up to 90%”.
